Results reported in US8404680B2, “N-[3-(5-amino-3,3a,7,7a-tetrahydro-1H-2,4-dioxa-6-aza-inden-7-yl)-phenyl]-amides as BACE1 and/or BACE2 inhibitors” (Hoffmann-La Roche Inc., priority 2011, dated 2013).

Assays:
BACE1 = biological target: T1, BACE1 (Homo sapiens, UniProt P56817); assay: Cellular Aβ-lowering assay; type: cell-based; conditions: human HEK293 cells stably expressing human APP wt (APP695); Aβ40 in supernatant by ELISA after 18-20 hrs
T1 construct: Human HEK293 cells which are stably transfected with a vector expressing a cDNA of the human APP wt gene (APP695); endogenous in cells; host or cells: HEK293 (human), stably transfected with human APP695 wt
T1 sequence (P56817 46-501): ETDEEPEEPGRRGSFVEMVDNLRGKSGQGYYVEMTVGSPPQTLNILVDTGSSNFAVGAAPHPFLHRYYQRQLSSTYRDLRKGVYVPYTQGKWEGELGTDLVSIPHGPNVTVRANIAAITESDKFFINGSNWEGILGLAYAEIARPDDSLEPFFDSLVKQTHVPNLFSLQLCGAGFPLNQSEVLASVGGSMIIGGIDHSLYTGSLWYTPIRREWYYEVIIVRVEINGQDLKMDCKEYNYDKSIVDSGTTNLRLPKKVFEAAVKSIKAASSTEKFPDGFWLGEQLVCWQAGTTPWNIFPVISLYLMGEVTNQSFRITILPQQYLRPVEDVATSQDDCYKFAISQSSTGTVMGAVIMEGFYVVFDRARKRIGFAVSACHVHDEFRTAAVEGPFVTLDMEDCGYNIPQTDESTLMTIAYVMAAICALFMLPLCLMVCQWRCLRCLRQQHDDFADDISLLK
Description: Cellular Aβ-Lowering Assay:
Human HEK293 cells which are stably transfected with a vector expressing a cDNA of the human APP wt gene (APP695) were used to assess the potency of the compounds in a cellular assay. The cells were seeded in 96-well microtiter plates in cell culture medium (Iscove, plus 10% (v/v) fetal bovine serum, glutamine, penicillin/streptomycin) to about 80% confluence and the compounds were added at a 10× concentration in 1/10 volume of medium without FCS containing 8% DMSO (final concentration of DMSO was kept at 0.8% v/v). After 18-20 hrs incubation at 37° C. and 5% CO2 in a humidified incubator the culture supernatant was harvested for the determination of Aβ40 concentrations. 96well ELISA plates (e.g., Nunc MaxiSorb) were coated with monoclonal antibody which specifically recognize the C-terminal end of Aβ40 (Brockhaus et al., NeuroReport 9, 1481-1486; 1998). After blocking of non-specific binding sites with e.g. 1% BSA and washing, the culture supernatants were added in suitable dilutions together with a horseradish peroxidase-coupled Aβ detection antibody (e.g., antibody 4G8, Senetek, Md. Heights, Mo.) and incubated for 5 to 7 hrs. Subsequently the wells of the microtiter plate were washed extensively with Tris-buffered saline containing 0.05% Tween 20 and the assay was developed with tetramethylbenzidine/H2O2 in citric acid buffer. After stopping the reaction with one volume 1 NH2SO4 the reaction was measured in an ELISA reader at 450 nm wavelength. The concentrations of Aβ in the culture supernatants were calculated from a standard curve obtained with known amounts of pure Aβ peptide.

BACE2 = biological target: T2, BACE2 (Rattus norvegicus, UniProt Q6IE75); assay: Assay for BACE inhibition by measuring cellular TMEM27 cleavage; type: cell-based; conditions: INS-TMEM27 (INS1e-derived rat cell line, inducible hTMEM27); shed TMEM27 in medium by ELISA
T2 construct: endogenous cellular BACE2 in the Ins1e rat cell line; endogenous in cells; host or cells: INS-TMEM27 (INS1e-derived rat cell line, TetOn-inducible full-length hTMEM27)
T2 sequence (Q6IE75 63-514): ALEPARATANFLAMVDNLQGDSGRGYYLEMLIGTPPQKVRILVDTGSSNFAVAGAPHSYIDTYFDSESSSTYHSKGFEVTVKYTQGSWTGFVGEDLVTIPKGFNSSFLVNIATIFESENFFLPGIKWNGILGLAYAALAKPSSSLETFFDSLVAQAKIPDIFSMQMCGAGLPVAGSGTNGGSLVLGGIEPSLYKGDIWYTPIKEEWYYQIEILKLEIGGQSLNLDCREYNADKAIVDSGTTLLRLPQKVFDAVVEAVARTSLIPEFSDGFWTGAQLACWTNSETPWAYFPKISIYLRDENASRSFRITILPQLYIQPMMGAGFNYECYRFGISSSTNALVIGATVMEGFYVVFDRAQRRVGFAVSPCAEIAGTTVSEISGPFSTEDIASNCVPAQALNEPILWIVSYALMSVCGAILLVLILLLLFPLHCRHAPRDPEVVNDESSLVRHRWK
Text: Assay for BACE Inhibition by Measuring Cellular TMEM27 Cleavage:
The assay uses the principle of inhibition of human TMEM27 cleavage by endogenous cellular BACE2 in the Ins1e rat cell line and shedding from the cell surface into the culture medium, followed by detection in an ELISA assay Inhibition of BACE2 prevents the cleavage and shedding in a dose-dependent manner.
The stable cell line “INS-TMEM27” represents an INS1e-derived cell line with inducible expression (using the TetOn system) of full-length hTMEM27 in a doxycycline-dependent manner. The cells are cultured throughout the experiment in RPMI1640+ Glutamax (Invitrogen) Penicillin/Streptomycin, 10% Fetal bovine serum, […], […], 100 micrograms/ml G418 and 100 microgram/ml hygromycin and are grown inadherent culture at 37° C. in a standard CO2 cell culture incubator.
INS-TMEM27 cells are seeded in 96-well plates. After 2 days in culture, BACE2 inhibitor is added in a range of concentrations as required by the assay and after a further two hours, doxycycline is added to a final concentration of 500 ng/ml. The cells are incubated for a further 46 hours and the supernatant harvested for detection of shed TMEM27.
An ELISA assay (using a pair of mouse anti-human-TMEM27 antibodies, raised against the extracellular domain of TMEM27) is used for detection of TMEM27 in the culture medium. An EC50 for BACE2 inhibition is calculated using the ELISA readout for each inhibitor concentration with standard curve-fitting software such as XLFit for the Excel spreadsheet program.

Row | SMILES | IC50 (BACE1) [nM] | IC50 (BACE2) [nM]
1 | C[C@]1(c2cc(NC(=O)c3ccc(C#N)cn3)ccc2F)N=C(N)O[C@]2(C(F)(F)F)COC[C@H]12 (relative stereo) [Example 19, N-(3-(rel-(4SR,4aSR,7aSR)-2-amino-4-methyl-7a-(trifluoromethyl)-4a,5,7,7a-tetrahydro-4H-furo[3,4-e][1,3]oxazin-4-yl)-4-fluorophenyl)-5-cyanopicolinamide] | 9 | 
2 | C[C@]1(c2cc(NC(=O)c3ccc(F)cn3)ccc2F)N=C(N)O[C@@H]2COC[C@@H]21 [Example 3, 5-Fluoro-pyridine-2-carboxylic acid [3-((3aS,7S,7aS)-5-amino-7-methyl-3,3a,7,7a-tetrahydro-4H-2,4-dioxa-6-aza-inden-7-yl)-4-fluoro-phenyl]-amide] | 2.5 | 18
3 | C[C@]1(c2cc(NC(=O)c3ccc(Cl)cn3)ccc2F)N=C(N)O[C@@H]2COC[C@@H]21 [Example 1, 5-Chloro-pyridine-2-carboxylic acid [3-((3aS,7S,7aS)-5-amino-7-methyl-3,3a,7,7a-tetrahydro-1H-2,4-dioxa-6-aza-inden-7-yl)-4-fluoro-phenyl]-amide] | 0.7 | 36
4 | C[C@]1(c2cc(NC(=O)c3ccc(C#N)cn3)ccc2F)N=C(N)O[C@]2(C(F)(F)F)COC[C@H]12 (racemic) [Example 22, N-(3-((4SR,4aSR,7aSR)-2-amino-4-methyl-7a-(trifluoromethyl)-4a,5,7,7a-tetrahydro-4H-furo[3,4-e][1,3]oxazin-4-yl)-4-fluorophenyl)-5-cyanopicolinamide] | 7 | 
5 | C[C@]1(c2cc(NC(=O)c3ccc(C#N)cn3)ccc2F)N=C(N)O[C@@H]2COC[C@@H]21 [Example 4, 5-Cyano-pyridine-2-carboxylic acid [3-((3aS,7S,7aS)-5-amino-7-methyl-3,3a,7,7a-tetrahydro-4H-2,4-dioxa-6-aza-inden-7-yl)-4-fluoro-phenyl]-amide] |  | 17
6 | C[C@]1(c2cc(NC(=O)c3cnc(OCC(F)(F)F)cn3)ccc2F)N=C(N)O[C@@H]2COC[C@@H]21 [Example 8, 5-(2,2,2-Trifluoro-ethoxy)-pyrazine-2-carboxylic acid [3-((3aS,7S,7aS)-5-amino-7-methyl-3,3a,7,7a-tetrahydro-1H-2,4-dioxa-6-aza-inden-7-yl)-4-fluoro-phenyl]-amide] | 1.8 | 209
7 | C[C@]1(c2cc(NC(=O)c3ccc(Cl)cn3)ccc2F)N=C(N)O[C@]2(C(F)(F)F)COC[C@H]12 (racemic) [Example 21, N-(3-((4SR,4aSR,7aSR)-2-amino-4-methyl-7a-(trifluoromethyl)-4a,5,7,7a-tetrahydro-4H-furo[3,4-e][1,3]oxazin-4-yl)-4-fluorophenyl)-5-chloropicolinamide] | 34 | 
8 | NC1=N[C@](CF)(c2cc(NC(=O)c3ccc(F)cn3)ccc2F)[C@H]2COC[C@H]2O1 [Example 15, 5-Fluoro-pyridine-2-carboxylic acid [3-((3aS,7S,7aS)-5-amino-7-fluoromethyl-3,3a,7,7a-tetrahydro-1H-2,4-dioxa-6-aza-inden-7-yl)-4-fluoro-phenyl]-amide] | 2.5 | 
9 | NC1=N[C@@](c2cc(NC(=O)c3ccc(Cl)cn3)ccc2F)(C(F)F)[C@H]2COC[C@H]2O1 [Example 16, 5-Chloro-pyridine-2-carboxylic acid [3-((3aS,7S,7aS)-5-amino-7-difluoromethyl-3,3a,7,7a-tetrahydro-1H-2,4-dioxa-6-aza-inden-7-yl)-4-fluoro-phenyl]-amide] | 5.5 | 
10 | C[C@]1(c2cc(NC(=O)c3ncc(C#N)cc3Cl)ccc2F)N=C(N)O[C@@H]2COC[C@@H]21 [Example 12, N-(3-((4S,4aS,7aS)-2-amino-4-methyl-4a,5,7,7a-tetrahydro-4H-furo[3,4-e][1,3]oxazin-4-yl)-4-fluorophenyl)-3-chloro-5-cyanopicolinamide] | 1 | 

More lines, now with the values ahead:

Row | IC50 (BACE1) [nM] | IC50 (BACE2) [nM] | SMILES
11 | 7 |  | CC#CCOc1cnc(C(=O)Nc2ccc(F)c([C@@]3(C)N=C(N)O[C@]4(C(F)(F)F)COC[C@H]34)c2)cn1 (relative stereo) [Example 20, N-(3-(rel-(4SR,4aSR,7aSR)-2-amino-4-methyl-7a-(trifluoromethyl)-4a,5,7,7a-tetrahydro-4H-furo[3,4-e][1,3]oxazin-4-yl)-4-fluorophenyl)-5-(but-2-ynyloxy)pyrazine-2-carboxamide]
12 |  | 47 | CC#CCOc1cnc(C(=O)Nc2ccc(F)c([C@@]3(C)N=C(N)O[C@@H]4COC[C@@H]43)c2)cn1 [Example 7, 5-But-2-ynyloxy-pyrazine-2-carboxylic acid [3-((3aS,7S,7aS)-5-amino-7-methyl-3,3a,7,7a-tetrahydro-4H-2,4-dioxa-6-aza-inden-7-yl)-4-fluoro-phenyl]-amide]
13 | 6 | 556 | C[C@]1(c2cc(NC(=O)c3ccc(OCC(F)(F)F)cn3)ccc2F)N=C(N)O[C@@H]2COC[C@@H]21 [Example 6, 5-(2,2,2-Trifluoro-ethoxy)-pyridine-2-carboxylic acid [3-((3aS,7S,7aS)-5-amino-7-methyl-3,3a,7,7a-tetrahydro-4H-2,4-dioxa-6-aza-inden-7-yl)-4-fluoro-phenyl]-amide]
14 | 1 |  | N#Cc1ccc(C(=O)Nc2ccc(F)c([C@@]3(CF)N=C(N)O[C@@H]4COC[C@@H]43)c2)nc1 [Example 13, 5-Cyano-pyridine-2-carboxylic acid [3-((3aS,7S,7aS)-5-amino-7-fluoromethyl-3,3a,7,7a-tetrahydro-1H-2,4-dioxa-6-aza-inden-7-yl)-4-fluoro-phenyl]-amide]
15 | 0.1 |  | CC#CCOc1ccc(C(=O)Nc2ccc(F)c([C@@]3(C)N=C(N)O[C@@H]4COC[C@@H]43)c2)nc1 [Example 10, 5-But-2-ynyloxy-pyridine-2-carboxylic acid [3-((3aS,7S,7aS)-5-amino-7-methyl-3,3a,7,7a-tetrahydro-1H-2,4-dioxa-6-aza-inden-7-yl)-4-fluoro-phenyl]-amide]
16 | 5 |  | C[C@]1(c2cc(NC(=O)c3ccc(OCC4CC4)cn3)ccc2F)N=C(N)O[C@@H]2COC[C@@H]21 [Example 9, 5-Cyclopropylmethoxy-pyridine-2-carboxylic acid [3-((3aS,7S,7aS)-5-amino-7-methyl-3,3a,7,7a-tetrahydro-1H-2,4-dioxa-6-aza-inden-7-yl)-4-fluoro-phenyl]-amide]
17 | 5 |  | C[C@]1(c2cc(NC(=O)c3ccc(OCC(F)(F)C(F)F)cn3)ccc2F)N=C(N)O[C@@H]2COC[C@@H]21 [Example 11, 5-(2,2,3,3-Tetrafluoro-propoxy)-pyridine-2-carboxylic acid [3-((3aS,7S,7aS)-5-amino-7-methyl-3,3a,7,7a-tetrahydro-1H-2,4-dioxa-6-aza-inden-7-yl)-4-fluoro-phenyl]-amide]
18 | 1 |  | NC1=N[C@](CF)(c2cc(NC(=O)c3ccc(Cl)cn3)ccc2F)[C@H]2COC[C@H]2O1 [Example 14, 5-Chloro-pyridine-2-carboxylic acid [3-((3aS,7S,7aS)-5-amino-7-fluoromethyl-3,3a,7,7a-tetrahydro-1H-2,4-dioxa-6-aza-inden-7-yl)-4-fluoro-phenyl]-amide]
